The source of these data is PMC7318222, “A Family of Water‐Immiscible, Dipolar Aprotic, Diamide Solvents from Succinic Acid” (Chemsuschem, 2020).

For the data set, the target named is T1, PXR (Homo sapiens, UniProt O75469).
T1 construct: expression construct for the full-length human receptor under investigation; expressed in transfected cells; host or cells: human U2-OS cells (ATCC HTB-96), stably transfected
T1 sequence (O75469 1-434): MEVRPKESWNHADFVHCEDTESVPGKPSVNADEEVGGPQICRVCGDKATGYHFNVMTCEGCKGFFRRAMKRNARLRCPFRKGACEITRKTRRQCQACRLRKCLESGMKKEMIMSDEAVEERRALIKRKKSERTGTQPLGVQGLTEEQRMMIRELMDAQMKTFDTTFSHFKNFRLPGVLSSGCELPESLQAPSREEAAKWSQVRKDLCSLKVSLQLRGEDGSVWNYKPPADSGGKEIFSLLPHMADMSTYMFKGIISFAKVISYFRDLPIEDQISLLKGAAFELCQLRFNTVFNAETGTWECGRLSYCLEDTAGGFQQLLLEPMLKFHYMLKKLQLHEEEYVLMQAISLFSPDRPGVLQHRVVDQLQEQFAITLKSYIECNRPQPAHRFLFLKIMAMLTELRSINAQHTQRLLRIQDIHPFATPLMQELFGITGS
In words: PXR CALUX reporter gene assay. In kind it is cell-based. Details: key: –: no effect observed up to the highest test concentration. As to conditions: PC10, 24 h exposure. An excerpt:
PXR activation leads to the induction of metabolic enzymes, resulting in enhanced metabolism of a wide range of compounds. […]
Polyarylethersulfone of 55,000 Da were obtained from INGE.BASF, Germany. The CALUX cell lines have been described previously.[1] They are based on human U2-OS cells (ATCC, HTB-96) stably transfected with an expression construct for the full-length human receptor under investigation, and a reporter construct consisting of multimerized responsive elements for the cognate receptor coupled to a minimal promoter element (TATA) and a luciferase gene. Cells were maintained as described previously,[2] using cell culture media and supplements from Fisher Scientific as described in the experimental procedures section. […]
In vitro reporter gene assays
The automated CALUX assays were carried out similarly as described earlier,[12] with some adaptations. In brief, the assay was performed in CO2 independent medium (Fisher Scientific, […]
supplement (Fisher Scientific, 11574466), 10 U/mL penicillin and 10 µg/mL streptomycin. A cell suspension in assay medium was made of 1 × 10^5cells/mL, and white 384-wells plates were seeded with 30 µl cell suspension/well. After 24 h, exposure medium was prepared. A dilution series in 0.5log unit increments of each test compound (in DMSO) was added to a 96-wells plate containing assay medium (2% v/v). Of this exposure mixture, 30 µl was added to the assay plates containing the CALUX cells, resulting in a final DMSO concentration of 1%. Additionally, DMSO blanks and a full dose response curve of the relevant reference compound were included on each plate. All samples were tested in triplicate. The preparation of the compound dilution series as well as the exposure of the cells were performed on a Hamilton StarLET liquid handling robot coupled to a Cytomat incubator.
Directly after exposure, plates were sealed with non-breathing plate seals (Plate sealer, easy seal transparent; Greiner-Bio-One, 676001). After 24 h the exposure medium was removed using an EL406 washer-dispenser (BioTek) and 10 µl/well triton lysisbuffer was added by the EL406.
Subsequently, the luciferase signal was measured in a luminometer (InfinitePro coupled to a Connect Stacker, both TECAN). In order to be able to detect receptor antagonism, several assays were also performed in antagonistic mode. The assay procedure was as described above, with the only exception that the EC50 concentration of the reference agonist was present during the exposure.
The luminometer data was analysed as follows; the average of the triplicate wells was determined, and the average blank (DMSO) value was subtracted. For receptor-based assays the maximum response elicited by the reference compound was set to 100% (full receptor- or pathway activation), and the other values were scaled accordingly. GraphPad Prism was used to fit a sigmoidal curve through the data (four parameters, variable slope). […] For antagonist- and cytotoxicity experiments, PC20 values were determined instead, which was defined as the concentration where the test compound causes a 20% decrease in the basal signal, which was […]
curve, the signal induction above background (DMSO) was determined, and the concentration where the compound elicited a 1.5-fold increase above background was used as LEC.
In the case of `CCCCN(CC)C(=O)CCC(=O)N(CC)CCCC` [EBSA, N,N′‐diethyl‐N,N′‐dibutylsuccindiamide], the “LEC PXR” value was −5.0 Log M.

Turning to `CCCCN(C)C(=O)CCC(=O)N(C)CCCC` [MBSA, N,N′‐dimethyl‐N,N′‐dibutylsuccindiamide], the “LEC PXR” value is reported as −3.9 Log M.

As for `CCCCN1CCCC1=O` [NBP, N‐Butylpyrrolidinone, reference compound], the “LEC PXR” value was −3.2 Log M.

With `CN1CCCC1=O` [NMP, N‐methyl‐2‐pyrrolidone, reference compound], the “LEC PXR” value was “–”.

Take `CCCCN(CCCC)C(=O)CCC(=O)N(CCCC)CCCC` [TBSA, N,N,N′,N′‐tetrabutylsuccindiamide]: the “LEC PXR” value is −6.1 Log M.
